From ChEMBL document CHEMBL4665820, “Discovery of VU6027459: A First-in-Class Selective and CNS Penetrant mGlu Positive Allosteric Modulator Tool Compound” (ACS Med Chem Lett, 2020) come the findings set out here.

Series [1] deals with Metabotropic glutamate receptor 7 (Rattus norvegicus, UniProt P35400). The series is described as follows: Positive allosteric modulation of rat mGlu7 expressed in HEK293 cells co- expressing GIRK assessed as potentiation of L-AP4-induced thallium flux incubated for 140 sec by FluoZin2-AM dye based fluorescence analysis. It is filed as cell-based.
Series [2] can be described thus: Plasma clearance in Sprague-Dawley rat at 0.2 to 0.25 mg/kg, iv measured upto 24 hrs by LC/MS/MS analysis. Type of series: ADME, organism-based. To be noted: dose 0.2-0.25 mg/kg.
Series [3] is described as follows: Half-life in Sprague-Dawley rat at 0.2 to 0.25 mg/kg, iv measured upto 24 hrs by LC/MS/MS analysis. It is filed as ADME, organism-based. To be noted: in vivo, dose 0.2-0.25 mg/kg.
A short description of series [4]: Volume of distribution at steady state in Sprague-Dawley rat at 0.2 to 0.25 mg/kg, iv measured upto 24 hrs by LC/MS/MS analysis. It is filed as ADME, organism-based. Conditions: in vivo, dose 0.2-0.25 mg/kg, read-out: Vdss.
Series [5] has as its target Histamine H1 receptor (Homo sapiens) (UniProt P35367). Kind of series: Displacement of [3H]pyrilamine from human recombinant histamine H1 receptor at 10 uM after 60 mins by scintillation counting analysis relative to control. Background: Loss of bound radioactivity is the signal in a displacement assay; it reports binding, not function.
Series [6] has as its target Cysteinyl leukotriene receptor 1 (Homo sapiens) (UniProt Q9Y271). The series is described as follows: Displacement of [3H]-LTD4 from human recombinant CysLT1 Leukotriene receptor at 10 uM incubated for 60 mins by scintillation counting analysis relative to control.
Series [7] concerns the target Muscarinic acetylcholine receptor M3 (Homo sapiens) (UniProt P20309). The series is described as follows: Displacement of [3H]4-DAMP from human recombinant M3 receptor at 10 uM after 60 mins by scintillation counting analysis relative to control.
For series [8], the target named is Acetylcholine receptor subunit alpha (Homo sapiens) (UniProt P02708). The series is described as follows: Displacement of [125I] alpha-Bungarotoxin from human nicotinic acetylcholine alpha 1 receptor at 10 uM incubated for 120 mins by radioligand binding assay relative to control.
For a further series, the target named is hERG (KCNH2) (Homo sapiens, UniProt Q12809). Kind of series: Displacement of [3H]-Astemizole from human recombinant full length ERG channel at 10 uM incubated for 60 mins by scintillation counting analysis relative to control. Conditions: probe [3H]-astemizole.
For series [9], the target named is 5-hydroxytryptamine receptor 3A (Homo sapiens) (UniProt P46098). The series is described as follows: Displacement of [3H]BRL 43694 from human recombinant 5-HT3 receptor at 10 uM after 120 mins by scintillation counting analysis relative to control.
The species entered for series [10] is Rattus norvegicus. Kind of series: Displacement of [125I]-Triiodothyronine from thyroid hormone receptors in rat at 10 uM incubated for 180 mins by scintillation counting analysis relative to control.
Series [11] deals with dopamine transporter (DAT) (Homo sapiens, UniProt Q01959). The series is described as follows: Displacement of […] from recombinant human Dopamine transporter at 10 uM after 120 mins by scintillation counting analysis relative to control. Type of series: ADME.
In series [12] the target is Sodium-dependent noradrenaline transporter (Homo sapiens) (UniProt P23975). The series is described as follows: Displacement of […] from recombinant human norepinephrine transporter at 10 uM after 120 mins by scintillation counting analysis relative to control.
The target of series [13] is Sodium-dependent serotonin transporter (Homo sapiens) (UniProt P31645). The series is described as follows: Displacement of [3H]-imipramine from recombinant human 5-HT transporter at 10 uM after 60 mins by scintillation counting relative to control.
For series [14], the species on record is Rattus norvegicus. Kind of series: Displacement of [3H]-GABA in GABA transporter in rat brain membrane at 10 uM incubated for 30 mins by scintillation counting analysis elative to control. It is filed as cell membranes.
Series [15] can be described thus: Fraction unbound in rat plasma at 5 uM incubated for 4 hrs by equilibrium dialysis based LC-MS/MS analysis. Type of series: ADME, cell-free. On the technique in general: Equilibrium dialysis compares concentrations on both sides of a semipermeable membrane.
Series [16] can be described thus: Hepatic intrinsic clearance in rat liver microsomes at 1 uM preincubated for 5 mins followed by NADPH addition and measured up to 45 mins by LC-MS/MS analysis. It is filed as ADME, Microsome. To be noted: read-out: CLH. For orientation: Microsomes from liver hold many membrane-bound enzymes, among them those of drug oxidation.
Series [17] in a line: Hepatic intrinsic clearance in mouse liver microsomes at 1 uM preincubated for 5 mins followed by NADPH addition and measured up to 45 mins by LC-MS/MS analysis. Type of series: ADME, Microsome. Conditions: read-out: CLH.
Series [18] concerns the target Metabotropic glutamate receptor 7 (Homo sapiens) (UniProt Q14831). The series is described as follows: Agonist activity at human mGlu7 receptor. Conditions: tested as the 2H-labelled form.
For series [19] the target is unchanged. Kind of series: Positive allosteric modulation of human mGlu7 receptor. To be noted: filed as positive allosteric modulator; tested as the 2H-labelled form.

Calls of active or inactive are those of the source. No cut-off for these calls is given here.

Sequence of Acetylcholine receptor subunit alpha (Homo sapiens) (P02708 whole entry): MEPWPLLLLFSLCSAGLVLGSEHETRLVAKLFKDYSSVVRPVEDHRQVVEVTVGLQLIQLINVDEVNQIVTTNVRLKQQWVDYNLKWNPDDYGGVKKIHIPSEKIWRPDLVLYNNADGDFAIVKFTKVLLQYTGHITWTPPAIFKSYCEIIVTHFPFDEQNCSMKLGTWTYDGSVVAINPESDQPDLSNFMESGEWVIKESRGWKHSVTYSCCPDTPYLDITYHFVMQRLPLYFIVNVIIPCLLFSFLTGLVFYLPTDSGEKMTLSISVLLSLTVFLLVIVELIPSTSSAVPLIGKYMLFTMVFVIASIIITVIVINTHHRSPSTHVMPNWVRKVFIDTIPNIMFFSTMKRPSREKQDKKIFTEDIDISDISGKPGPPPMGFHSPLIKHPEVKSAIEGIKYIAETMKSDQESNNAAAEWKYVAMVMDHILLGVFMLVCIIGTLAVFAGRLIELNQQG
Sequence of Metabotropic glutamate receptor 7 (Homo sapiens) (Q14831 whole entry): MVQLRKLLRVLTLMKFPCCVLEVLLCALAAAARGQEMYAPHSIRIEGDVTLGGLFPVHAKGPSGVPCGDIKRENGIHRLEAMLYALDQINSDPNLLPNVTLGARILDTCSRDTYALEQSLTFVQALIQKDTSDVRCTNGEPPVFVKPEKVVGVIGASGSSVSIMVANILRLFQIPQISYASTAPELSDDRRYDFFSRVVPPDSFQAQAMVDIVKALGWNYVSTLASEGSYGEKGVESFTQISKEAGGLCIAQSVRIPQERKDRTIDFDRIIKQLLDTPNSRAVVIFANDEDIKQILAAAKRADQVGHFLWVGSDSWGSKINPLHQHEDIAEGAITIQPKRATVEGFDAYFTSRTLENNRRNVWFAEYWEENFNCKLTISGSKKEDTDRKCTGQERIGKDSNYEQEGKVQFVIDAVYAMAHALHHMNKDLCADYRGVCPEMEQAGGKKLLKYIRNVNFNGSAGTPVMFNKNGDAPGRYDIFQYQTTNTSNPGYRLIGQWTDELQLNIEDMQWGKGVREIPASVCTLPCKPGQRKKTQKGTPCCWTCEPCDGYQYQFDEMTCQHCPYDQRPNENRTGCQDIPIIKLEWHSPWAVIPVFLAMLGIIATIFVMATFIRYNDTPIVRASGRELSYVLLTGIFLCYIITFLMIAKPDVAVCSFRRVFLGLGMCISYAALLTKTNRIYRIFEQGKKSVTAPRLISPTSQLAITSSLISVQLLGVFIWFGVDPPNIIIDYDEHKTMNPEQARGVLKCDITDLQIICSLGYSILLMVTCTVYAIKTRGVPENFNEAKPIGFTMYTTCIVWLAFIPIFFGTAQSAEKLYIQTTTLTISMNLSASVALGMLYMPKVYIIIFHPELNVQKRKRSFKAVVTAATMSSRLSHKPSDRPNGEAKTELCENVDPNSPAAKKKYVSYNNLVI
Sequence of 5-hydroxytryptamine receptor 3A (Homo sapiens) (P46098 whole entry): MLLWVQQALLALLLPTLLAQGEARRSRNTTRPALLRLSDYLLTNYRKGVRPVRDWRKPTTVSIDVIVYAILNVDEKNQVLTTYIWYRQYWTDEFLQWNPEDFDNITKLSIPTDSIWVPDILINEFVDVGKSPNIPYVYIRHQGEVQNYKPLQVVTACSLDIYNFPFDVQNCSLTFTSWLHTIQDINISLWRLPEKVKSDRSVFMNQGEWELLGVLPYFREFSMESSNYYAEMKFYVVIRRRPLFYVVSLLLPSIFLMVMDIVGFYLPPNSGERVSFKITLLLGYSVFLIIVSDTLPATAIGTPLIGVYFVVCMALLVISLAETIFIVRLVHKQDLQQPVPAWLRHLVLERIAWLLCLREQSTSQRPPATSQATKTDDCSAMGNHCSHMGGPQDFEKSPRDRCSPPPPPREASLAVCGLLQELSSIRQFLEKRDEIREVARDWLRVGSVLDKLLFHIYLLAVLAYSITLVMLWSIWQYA
Sequence of Sodium-dependent noradrenaline transporter (Homo sapiens) (P23975 whole entry): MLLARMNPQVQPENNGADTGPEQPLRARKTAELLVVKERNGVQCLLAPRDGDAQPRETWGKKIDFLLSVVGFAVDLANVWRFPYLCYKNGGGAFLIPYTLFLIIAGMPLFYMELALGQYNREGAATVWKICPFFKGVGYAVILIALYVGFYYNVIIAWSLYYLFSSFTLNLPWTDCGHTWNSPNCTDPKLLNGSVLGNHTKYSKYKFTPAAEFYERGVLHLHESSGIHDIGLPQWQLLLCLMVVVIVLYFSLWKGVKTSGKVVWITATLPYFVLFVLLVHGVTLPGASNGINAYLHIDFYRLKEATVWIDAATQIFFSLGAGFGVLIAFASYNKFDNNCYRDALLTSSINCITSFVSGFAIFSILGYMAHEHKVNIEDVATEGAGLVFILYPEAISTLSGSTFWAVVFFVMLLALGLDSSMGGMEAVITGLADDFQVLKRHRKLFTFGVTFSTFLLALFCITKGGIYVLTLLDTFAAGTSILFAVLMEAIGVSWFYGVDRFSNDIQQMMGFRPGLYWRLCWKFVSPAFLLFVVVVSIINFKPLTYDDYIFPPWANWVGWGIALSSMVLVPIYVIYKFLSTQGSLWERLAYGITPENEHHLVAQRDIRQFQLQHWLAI
Sequence of Sodium-dependent serotonin transporter (Homo sapiens) (P31645 whole entry, looked up): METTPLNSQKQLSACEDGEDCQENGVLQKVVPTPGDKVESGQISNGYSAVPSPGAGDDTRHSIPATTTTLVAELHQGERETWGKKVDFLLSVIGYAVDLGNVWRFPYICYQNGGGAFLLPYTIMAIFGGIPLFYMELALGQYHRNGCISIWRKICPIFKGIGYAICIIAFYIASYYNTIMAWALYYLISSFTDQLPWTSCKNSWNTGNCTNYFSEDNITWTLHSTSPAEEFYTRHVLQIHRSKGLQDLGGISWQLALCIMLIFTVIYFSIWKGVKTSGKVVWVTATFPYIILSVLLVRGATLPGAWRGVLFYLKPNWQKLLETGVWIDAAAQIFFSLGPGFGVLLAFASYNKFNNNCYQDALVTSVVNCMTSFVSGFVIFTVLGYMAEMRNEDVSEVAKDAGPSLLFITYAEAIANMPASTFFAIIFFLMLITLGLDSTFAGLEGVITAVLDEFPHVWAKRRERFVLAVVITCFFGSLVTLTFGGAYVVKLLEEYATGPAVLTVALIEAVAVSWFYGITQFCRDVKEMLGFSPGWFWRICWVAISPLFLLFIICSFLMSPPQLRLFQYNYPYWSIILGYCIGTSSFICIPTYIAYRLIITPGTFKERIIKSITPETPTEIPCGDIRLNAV
Sequence of Cysteinyl leukotriene receptor 1 (Homo sapiens) (Q9Y271 whole entry): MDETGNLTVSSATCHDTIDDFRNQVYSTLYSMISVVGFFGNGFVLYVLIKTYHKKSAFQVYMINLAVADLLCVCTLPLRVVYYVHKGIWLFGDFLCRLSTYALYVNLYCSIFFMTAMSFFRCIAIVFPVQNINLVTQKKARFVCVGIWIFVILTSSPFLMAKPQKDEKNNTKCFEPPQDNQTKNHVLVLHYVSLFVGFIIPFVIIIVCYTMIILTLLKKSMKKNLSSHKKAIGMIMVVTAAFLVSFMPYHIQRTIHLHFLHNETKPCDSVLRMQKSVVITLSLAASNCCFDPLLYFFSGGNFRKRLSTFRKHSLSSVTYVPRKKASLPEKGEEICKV
Sequence of Histamine H1 receptor (Homo sapiens) (P35367 whole entry): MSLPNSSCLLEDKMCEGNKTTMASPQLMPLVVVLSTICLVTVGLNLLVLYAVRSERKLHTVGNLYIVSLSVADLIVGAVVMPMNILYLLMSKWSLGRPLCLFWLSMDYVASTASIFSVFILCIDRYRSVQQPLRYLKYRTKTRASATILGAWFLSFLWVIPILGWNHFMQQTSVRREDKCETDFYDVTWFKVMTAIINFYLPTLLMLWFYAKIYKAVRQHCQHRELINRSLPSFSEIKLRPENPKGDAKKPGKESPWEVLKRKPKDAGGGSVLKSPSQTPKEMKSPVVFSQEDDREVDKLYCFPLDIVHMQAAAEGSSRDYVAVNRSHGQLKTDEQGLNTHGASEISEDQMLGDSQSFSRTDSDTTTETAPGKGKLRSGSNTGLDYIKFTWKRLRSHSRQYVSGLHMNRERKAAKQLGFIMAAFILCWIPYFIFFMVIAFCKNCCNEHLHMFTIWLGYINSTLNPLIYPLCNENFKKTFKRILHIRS
Sequence of Muscarinic acetylcholine receptor M3 (Homo sapiens) (P20309 whole entry, looked up): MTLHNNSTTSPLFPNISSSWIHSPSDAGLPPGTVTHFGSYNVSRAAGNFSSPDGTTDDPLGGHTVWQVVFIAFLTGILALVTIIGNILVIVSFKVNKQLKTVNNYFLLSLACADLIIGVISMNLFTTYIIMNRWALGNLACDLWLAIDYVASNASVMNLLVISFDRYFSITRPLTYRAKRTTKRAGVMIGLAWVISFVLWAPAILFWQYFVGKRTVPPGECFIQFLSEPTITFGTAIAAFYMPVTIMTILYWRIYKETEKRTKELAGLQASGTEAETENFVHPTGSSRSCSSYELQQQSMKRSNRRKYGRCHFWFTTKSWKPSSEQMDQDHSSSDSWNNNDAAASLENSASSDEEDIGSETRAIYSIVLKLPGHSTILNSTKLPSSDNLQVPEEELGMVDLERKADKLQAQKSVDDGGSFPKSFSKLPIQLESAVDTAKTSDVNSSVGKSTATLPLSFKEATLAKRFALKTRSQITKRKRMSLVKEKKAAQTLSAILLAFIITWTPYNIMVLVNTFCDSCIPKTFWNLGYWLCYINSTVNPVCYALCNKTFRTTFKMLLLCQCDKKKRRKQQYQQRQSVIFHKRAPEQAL
Sequence of Metabotropic glutamate receptor 7 (P35400 whole entry): as the sequence (Q14831 whole entry) above, with R5G, A27V, N454H, S488T, A520S, D578N counted along it

In general, EC50 refers to the concentration at which the effect is half-maximal. As a reminder, the clearance is a measure of how efficiently the substance is removed, as volume per time. High values mean efficient removal, low ones inefficient removal. One may read the half-life as the time in which the quantity being followed falls by half. As usually defined, the inhibition is the drop in the measured response relative to a control, in per cent. As usually defined, the fraction unbound is the share of the substance not bound to proteins or other matrix. A higher fraction unbound goes with weak binding. Consider `COc1cccc2c(N3CCN(c4ccccc4F)CC3)c(C#N)cnc12`, for which the EC50 in series [1] is 879 nM. In series [2], this compound showed a clearance of 47.5 mL/min/kg. The same compound had a half-life in series [3] of 45 min. Further, the Vd in series [4] stood at 4.1 L/kg. For the same compound, the inhibition (in series [5]; in [6]; in series [7]; in series [8]; in series [9]; in the series listed under Rattus norvegicus [10]) was < 50% in each case. The inhibition (in series [12]; in [13]; in the series filed under Rattus norvegicus [14]) was < 50% throughout. Also, the inhibition at 1 h, 10 µM on hERG (KCNH2) was < 50%. Besides, in [11], the inhibition at 2 h, 10 µM was determined as 85%. Further, in series [15], the fraction unbound at 4 h, 5 µM turned out to be 0.032.
For `COc1cc(F)cc2c(N3CCN(c4ccccc4F)CC3)c(C#N)cnc12`, the inhibition (in [5] (tested as the 2H-labelled form); in series [6] (tested as the 2H-labelled form); in series [7] (tested as the 2H-labelled form); in [8] (tested as the 2H-labelled form); in series [9] (tested as the 2H-labelled form); in the series listed under Rattus norvegicus [10] (tested as the 2H-labelled form)) was < 50% throughout. Further, the inhibition (in series [12] (tested as the 2H-labelled form); in series [13] (tested as the 2H-labelled form); in the series listed under Rattus norvegicus [14] (tested as the 2H-labelled form)) was < 50% throughout. The figures for the CLint scaled at 1 µM in [16] and in series [17] were 56 mL/min/kg and 87 mL/min/kg, respectively. In series [15], the fraction unbound at 4 h, 5 µM is 0.01. Further, in series [18], the result was inactive. Besides, the outcome in series [19] was Active.
